# Where two headings read alike, the source gives them in different places.
# What was measured:
# [1] = Singlet oxygen production, cell free (SOG indicator fluorescence); type: physicochemical; design: unit not given here
# Description: The photosensitizers were diluted in phosphate buffer (pH=7.0)+100 mM NaCl or incomplete DMEM. The irradiation was performed in 96-well plates (100 uL working volume). Generation of singlet oxygen was measured by fluorescence signal of SOG indicator, generation of hydroxyl radical by fluorescence signal of HPF indicator. The signal presented is a result of subtraction of the signal in the presence of scavengers (NaN3 for singlet oxygen and DMTU for hydroxyl radical) from the total fluorescence signal.
# [2] = Photobleaching / absorbance stability; type: physicochemical; conditions: 525 nm laser; 0.8 mg/mL transferrin
# Description: Photobleaching was measured: (a) at wavelength in visible range maximal for each photosensitizer. This allows to estimate dynamics of amount of unbleached photosensitizer during irradiation; and (b) at 530, 635 and 808 nm. This allows estimating dynamics of unbleached photosensitizer available to exert PDT effect at these wavelengths as practically useful for PDT treatments.
# Photosensitizers (10 uM) were dissolved in phosphate buffer+100 mM NaCl (pH=7.0) alone or in a buffer with 0.8 mg/mL of transferrin at a total volume of 1 mL. The mixture was then exposed to a 525 nm laser source (130 mW) and the absorbance at the maximal absorbance in visible range (432 nm for TLD1433, 425 nm for TLD143310 and 562 nm for TLDOsH2dppn) was measured at specific time points. The plot represents the absorbance ratio (absorbance of exposed samples/absorbance of unexposed sample) as a function of the number of incident photons per cm^−2. Decreasing absorbance ratio signifies bleaching of the photosensitizer.
# Photosensitizers (10 uM) were dissolved in phosphate buffer+100 mM NaCl (pH=7.0) alone or in a buffer with 0.8 mg/mL of transferrin at a total volume of 1 mL. The mixture was then exposed to a 525 nm laser source (130 mW) and the absorbance at 530 nm was measured at specific time points. The plot represents the absorbance ratio (absorbance of exposed samples/absorbance of unexposed sample) as a function of the number of incident photons per cm^−2. Decreasing absorbance ratio signifies bleaching of the photosensitizer.
# Photosensitizers (10 uM) were dissolved in phosphate buffer+100 mM NaCl (pH=7.0) alone or in a buffer with 0.8 mg/mL of transferrin at a total volume of 1 mL. The mixture was then exposed to a 525 nm laser source (130 mW) and the absorbance at 635 nm was measured at specific time points. The plot represents the absorbance ratio (absorbance of exposed samples/absorbance of unexposed sample) as a function of the number of incident photons per cm^−2. Decreasing absorbance ratio signifies bleaching of the photosensitizer. […]
# [3] = system: U87 cells
# [4] = system: Subcutaneous tumors; test: In vivo PDT of subcutaneous tumors in mouse thighs
# Description: Subcutaneous tumors were grown in mouse thighs and PDT (808 nm, 600 Jcm^−2) was performed when tumor reached 5×5 mm in size. Mice were sacrificed if tumor continued to grow after PDT treatment and reached 10×10 mm.
# Subcutaneous tumors were grown in mouse thighs and PDT (635 nm, 192 Jcm^−2) was performed when tumor reached 5×5 mm in size. Mice were sacrificed if tumor continued to grow after PDT treatment and reached 10×10 mm.
# Subcutaneous tumors were grown in mouse thighs and PDT (525 nm, 90 Jcm^−2) was performed when tumor reached 5×5 mm in size. Mice were sacrificed if tumor continued to grow after PDT treatment and reached 10×10 mm.
# [5] = system: AY27 cancer cell line; test: In vitro dark toxicity, Presto Blue cell kill; type: cell-based; conditions: 0.4 mg/mL human transferrin, 30 minutes
# Description: The photosensitizer was pre-mixed with 0.4 mg/mL human transferrin and incubated for 1 hour at 37° C. In control group (no additional transferrin), equivalent volume of no-transferrin medium was added. The cells were subsequently incubated with the pre-mixes for 30 minutes (FIG. 12A) or 90 minutes (FIG. 12B). After that, the medium was replaced with a fresh one (without photosensitizer and transferrin). On the next day (21 hours post-irradiation), viability of the cells was measured using Presto Blue viability assay, and percent of cell kill was calculated.
# The photosensitizer was pre-mixed with 0.4 mg/mL human transferrin and incubated for 1 hour at 37° C. In control group (no additional transferrin), equivalent volume of no-transferrin medium was added. The cells were subsequently incubated with the pre-mixes for 30 minutes. After that, the medium was replaced with a fresh one (without photosensitizer and transferrin). On the next day (21 hours post-irradiation), viability of the cells was measured using Presto Blue viability assay, and percent of cell kill was calculated.
smiles,measurement,setting,value
[Os+2].c1ccc2cc3nc4c5cccnc5c5ncccc5c4nc3cc2c1.c1ccc2nc(-c3ccc4ccccc4n3)ccc2c1.c1ccc2nc(-c3ccc4ccccc4n3)ccc2c1 [TLDOsH2dppn],singlet oxygen production,"[1]; 530 nm & 1092 J cm−2, incomplete DMEM, 0.8 mg/mL transferrin",35127
same,singlet oxygen production,"[1]; 530 nm & 1092 J cm−2, incomplete DMEM, 1.6 mg/mL transferrin",43927
same,singlet oxygen production,"[1]; 530 nm & 1092 J cm−2, incomplete DMEM, 3.2 mg/mL transferrin",61734
same,singlet oxygen production,"[1]; 530 nm & 1092 J cm−2, incomplete DMEM, no transferrin",36391
same,singlet oxygen production,"[1]; 530 nm & 1092 J cm−2, phosphate buffer, 0.8 mg/mL transferrin",42816
same,singlet oxygen production,"[1]; 530 nm & 1092 J cm−2, phosphate buffer, 1.6 mg/mL transferrin",56372
same,singlet oxygen production,"[1]; 530 nm & 1092 J cm−2, phosphate buffer, 3.2 mg/mL transferrin",77219
same,singlet oxygen production,"[1]; 530 nm & 1092 J cm−2, phosphate buffer, no transferrin",25937
same,singlet oxygen production,"[1]; 635 nm & 649 J cm−2, incomplete DMEM, 0.8 mg/mL transferrin",53931
same,singlet oxygen production,"[1]; 635 nm & 649 J cm−2, incomplete DMEM, 1.6 mg/mL transferrin",75293
same,singlet oxygen production,"[1]; 635 nm & 649 J cm−2, incomplete DMEM, 3.2 mg/mL transferrin",81807
same,singlet oxygen production,"[1]; 635 nm & 649 J cm−2, incomplete DMEM, no transferrin",15109
same,singlet oxygen production,"[1]; 635 nm & 649 J cm−2, phosphate buffer, 0.8 mg/mL transferrin",42837
same,singlet oxygen production,"[1]; 635 nm & 649 J cm−2, phosphate buffer, 1.6 mg/mL transferrin",51832
same,singlet oxygen production,"[1]; 635 nm & 649 J cm−2, phosphate buffer, 3.2 mg/mL transferrin",72938
same,singlet oxygen production,"[1]; 635 nm & 649 J cm−2, phosphate buffer, no transferrin",10392
same,singlet oxygen production,"[1]; 808 nm & 4000 J cm−2, incomplete DMEM, 0.8 mg/mL transferrin",25384
same,singlet oxygen production,"[1]; 808 nm & 4000 J cm−2, incomplete DMEM, 1.6 mg/mL transferrin",55631
same,singlet oxygen production,"[1]; 808 nm & 4000 J cm−2, incomplete DMEM, 3.2 mg/mL transferrin",62804
same,singlet oxygen production,"[1]; 808 nm & 4000 J cm−2, incomplete DMEM, no transferrin",11907
same,singlet oxygen production,"[1]; 808 nm & 4000 J cm−2, phosphate buffer, 0.8 mg/mL transferrin",10000
same,singlet oxygen production,"[1]; 808 nm & 4000 J cm−2, phosphate buffer, 1.6 mg/mL transferrin",30000
same,singlet oxygen production,"[1]; 808 nm & 4000 J cm−2, phosphate buffer, 3.2 mg/mL transferrin",40000
same,singlet oxygen production,"[1]; 808 nm & 4000 J cm−2, phosphate buffer, no transferrin",8000
same,"photobleaching, absorbance ratio at 530 nm",[2],bleaching of the photosensitizers was reduced
same,"photobleaching, absorbance ratio at 635 nm",[2],bleaching of the photosensitizers was reduced
same,"photobleaching, absorbance ratio at 808 nm",[2],bleaching of the photosensitizers was reduced
same,Therapeutic Ratio,"[3]; 530 nm, 90 J cm−2, no transferrin",1307.3
same,Therapeutic Ratio,"[3]; 530 nm, 90 J cm−2, transferrin",5238.0
same,Therapeutic Ratio,"[3]; 650 nm, 90 J cm−2, no transferrin",15.3
same,Therapeutic Ratio,"[3]; 650 nm, 90 J cm−2, transferrin",50.3
same,Survival by day 80,"[4]; PDT 525 nm, 90 Jcm−2, with transferrin",78%
same,Survival by day 80,"[4]; PDT 525 nm, 90 Jcm−2, without transferrin",37%
same,Survival by day 80,"[4]; PDT 635 nm, 192 Jcm−2, with transferrin",75%
same,Survival by day 80,"[4]; PDT 635 nm, 192 Jcm−2, without transferrin",35%
same,Survival by day 80,"[4]; PDT 808 nm, 600 Jcm−2, with transferrin",80%
same,Survival by day 80,"[4]; PDT 808 nm, 600 Jcm−2, without transferrin",40%
same,"dark toxicity, effect of transferrin",[5],decreases dark toxicity
